Source: patent US10597388B2, “Pyridazinone herbicides” (FMC CORPORATION, priority 2014, dated 2020)

Tests used:
Type in all cases: in vivo
[1] = tested on: barnyardgrass (Echinochloa crus-galli); test: Test A greenhouse herbicide test, pre- and postemergence
Summary of the method: (§1)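 Seeds sown in loam–sand blend got a preemergence directed soil spray of compound in non-phytotoxic solvent with surfactant. Postemergence treatment was given at 2–10 cm, one- to two-leaf stage. After ~10 d in greenhouse, injury was rated visually vs untreated controls, 0 (no effect) to 100 (complete control).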

corn (Zea mays) = test: as above; settings: Postemergence; for Plant response rating, Corn: 125 g ai/ha, visual rating after approx. 10 d, 0 to 100 scale (0 no effect, 100 complete control); for Corn plant response rating: 500 g ai/ha, 0 to 100 scale, 0 is no effect, 100 is complete control
Summary of the method: as §1

[2] = tested on: ragweed (common ragweed, Ambrosia elatior); test: as above
Summary of the method: as §1

[3] = tested on: ryegrass, Italian (Italian ryegrass, Lolium multiflorum); test: as above
Summary of the method: as §1

[4] = tested on: foxtail, giant (giant foxtail, Setaria faberii); test: as above
Summary of the method: as §1

kochia (Kochia scoparia) = test: as above
Summary of the method: as §1

[5] = tested on: pigweed (Amaranthus retroflexus); test: as above
Summary of the method: as §1

[6] = tested on: wheat (Triticum aestivum); test: as above; settings: Postemergence; for Plant response rating, Wheat: 125 g ai/ha, 0 to 100 scale where 0 is no effect and 100 is complete control; for Wheat plant response rating: 500 g ai/ha, 0 to 100 scale, 0 is no effect, 100 is complete control
Summary of the method: as §1

soybean (Glycine max) = test: Test E greenhouse herbicide test, pre- and postemergence
From the text: Seeds of plant species selected from corn (Zea mays), soybean (Glycine max), velvetleaf (Abutilon theophrasti), lambsquarters (Chenopodium album), wild poinsettia (Euphorbia heterophylla), pigweed, palmer (palmer pigweed, Amaranthus palmeri), waterhemp (common waterhemp, Amaranthus rudis), surinam grass (Brachiaria decumbens), crabgrass, large (large crabgrass, Digitaria sanguinalis), crabgrass, Brazilian (Brazilian crabgrass, Digitaria horizontalis), panicum, fall (fall panicum, Panicum dichotomiflorum), foxtail, giant (giant foxtail, Setaria faberii), foxtail, green (green foxtail, Setaria viridis), goosegrass (Eleusine indica), johnsongrass (Sorghum halepense), ragweed (common ragweed, Ambrosia elatior), barnyardgrass (Echinochloa crus-galli), sandbur (southem sandbur, Cenchrus echinatus), arrowleaf sida (Sida rhombifolia), Italian ryegrass (Lolium multiflorum), dayflower (Virginia (VA) dayflower, Commelina virginica), field bindweed (Convolvulus arvensis), momingglory (Ipomoea coccinea), nightshade (eastern black nightshade, Solanum ptycanthum), kochia (Kochia scoparia), nutsedge, yellow (yellow nutsedge, Cyperus esculentus), horseweed (Conyza canadensis), and beggarticks (hairy beggarticks, Bidens pilosa), were planted into a silt loam soil and treated preemergence with test chemicals formulated in a non-phytotoxic solvent mixture which included a surfactant.
At the same time, plants from these crop and weed species and also waterhemp_RES1, (ALS & Triazine resistant common waterhemp, Amaranthus rudis), and waterhemp_RES2, (ALS & HPPD resistant common waterhemp, Amaranthus rudis) were planted in pots containing Redi-Earth® planting medium (Scotts Company, 14111 Scottslawn Road, Marysville, Ohio 43041) comprising spaghnum peat moss, vermiculite, wetting agent and starter nutrients were treated with postemergence applications of test chemicals formulated in the same manner. Plants ranged in height from 2 to 18 cm for postemergence treatments (1- to 4-leaf stage). Treated plants and controls were maintained in a greenhouse for 14 to 21 d, after which time all species were compared to controls and visually evaluated. Plant response ratings, summarized in Table E, are based on a scale of 0 to 100 where 0 is no effect and 100 is complete control. A dash (-) response means no test result.

[7] = Postemergence, 125 g ai/ha, visual rating after approx. 10 d, 0 to 100 scale (0 no effect, 100 complete control)
[8] = Postemergence, 500 g ai/ha, 0 to 100 scale, 0 is no effect, 100 is complete control
[9] = Preemergence, 125 g ai/ha, 0 to 100 scale where 0 is no effect and 100 is complete control
[10] = Preemergence, 500 g ai/ha, 0 to 100 scale, 0 no effect, 100 complete control
[11] = Postemergence, 125 g ai/ha, 0 to 100 scale where 0 is no effect and 100 is complete control
[12] = 62 g ai/ha, Preemergence, scale 0 to 100 (0 no effect, 100 complete control)
[13] = 125 g ai/ha, Preemergence, scale 0 to 100 (0 no effect, 100 complete control)
[14] = Preemergence, 31 g ai/ha, scale 0 to 100, 0 no effect, 100 complete control
[15] = Preemergence, 250 g ai/ha, visual, scale 0 no effect to 100 complete control

Cc1ccc2ccccc2c1-c1c(O)c(I)nn(C)c1=O [Compound 29]
10: Plant response rating, Corn (corn (Zea mays))
40: Corn plant response rating (corn (Zea mays)) | Plant response rating, Wheat [6]
50: Plant response rating, Soybean (soybean (Glycine max); [12]) | Plant response rating, Soybean (soybean (Glycine max); [15])
100: Ragweed plant response rating [2, 8] | Ryegrass, Italian plant response rating [3, 8] | Plant response rating, Kochia (kochia (Kochia scoparia); [10]) | Pigweed plant response rating [5, 8] | Pigweed plant response rating [5, 9] | Plant response rating, Pigweed [5, 10]
60: Kochia plant response rating (kochia (Kochia scoparia); [9]) | Wheat plant response rating [6]
80: Barnyardgrass plant response rating [1, 8] | Ryegrass, Italian plant response rating [3, 9] | Plant response rating, Foxtail, Giant [4, 7] | Foxtail, Giant plant response rating [4, 9] | Plant response rating, Kochia (kochia (Kochia scoparia); [7])
70: Plant response rating, Barnyardgrass [1, 7] | Barnyardgrass plant response rating [1, 9] | Plant response rating, Soybean (soybean (Glycine max); [13]) | Plant response rating, Soybean (soybean (Glycine max); [14])
90: Plant response rating, Barnyardgrass [1, 10] | Plant response rating, Ragweed [2, 7] | Ragweed plant response rating [2, 9] | Plant response rating, Ragweed [2, 10] | Plant response rating, Ryegrass, Italian [3, 11] | Plant response rating, Ryegrass, Italian [3, 10] | Foxtail, Giant plant response rating [4, 8] | Plant response rating, Foxtail, Giant [4, 10] | Kochia plant response rating (kochia (Kochia scoparia); [8]) | Plant response rating, Pigweed [5, 7]

Cc1cc2ccccc2c(-c2c(O)c(C)nn(C)c2=O)c1C [Compound 34]
30: Plant response rating, Barnyardgrass [1, 7] | Plant response rating, Foxtail, Giant [4, 7] | Kochia plant response rating (kochia (Kochia scoparia); [9])
0: Plant response rating, Corn (corn (Zea mays)) | Corn plant response rating (corn (Zea mays)) | Plant response rating, Soybean (soybean (Glycine max); [14]) | Plant response rating, Soybean (soybean (Glycine max); [15])
40: Foxtail, Giant plant response rating [4, 9] | Wheat plant response rating [6] | Plant response rating, Soybean (soybean (Glycine max); 62 g ai/ha, Postemergence, scale 0 to 100 (0 no effect, 100 complete control))
60: Plant response rating, Kochia (kochia (Kochia scoparia); [10]) | Plant response rating, Soybean (soybean (Glycine max); 250 g ai/ha, Postemergence, scale 0 to 100 (0 no effect, 100 complete control))
35: Plant response rating, Soybean (soybean (Glycine max); [12]) | Plant response rating, Soybean (soybean (Glycine max); Postemergence, 31 g ai/ha, visual, scale 0 no effect to 100 complete control)
80: Plant response rating, Barnyardgrass [1, 10] | Ragweed plant response rating [2, 9] | Kochia plant response rating (kochia (Kochia scoparia); [8])
15: Plant response rating, Soybean (soybean (Glycine max); [13])
70: Plant response rating, Kochia (kochia (Kochia scoparia); [7]) | Plant response rating, Soybean (soybean (Glycine max); 125 g ai/ha, Postemergence, scale 0 to 100 (0 no effect, 100 complete control))
100: Ragweed plant response rating [2, 8] | Plant response rating, Ryegrass, Italian [3, 11] | Ryegrass, Italian plant response rating [3, 8] | Ryegrass, Italian plant response rating [3, 9] | Plant response rating, Ryegrass, Italian [3, 10] | Plant response rating, Pigweed [5, 10]
20: Barnyardgrass plant response rating [1, 9] | Plant response rating, Wheat [6]
90: Barnyardgrass plant response rating [1, 8] | Plant response rating, Ragweed [2, 7] | Plant response rating, Ragweed [2, 10] | Foxtail, Giant plant response rating [4, 8] | Plant response rating, Foxtail, Giant [4, 10] | Plant response rating, Pigweed [5, 7] | Pigweed plant response rating [5, 8] | Pigweed plant response rating [5, 9]
